Assay [1] addresses T1, human TLR7 (Homo sapiens, UniProt Q9NYK1).
T1 construct: host or cells: HEK-Blue hTLR7 (HEK293-derived) stably transfected cells
T1 sequence (Q9NYK1 27-1049): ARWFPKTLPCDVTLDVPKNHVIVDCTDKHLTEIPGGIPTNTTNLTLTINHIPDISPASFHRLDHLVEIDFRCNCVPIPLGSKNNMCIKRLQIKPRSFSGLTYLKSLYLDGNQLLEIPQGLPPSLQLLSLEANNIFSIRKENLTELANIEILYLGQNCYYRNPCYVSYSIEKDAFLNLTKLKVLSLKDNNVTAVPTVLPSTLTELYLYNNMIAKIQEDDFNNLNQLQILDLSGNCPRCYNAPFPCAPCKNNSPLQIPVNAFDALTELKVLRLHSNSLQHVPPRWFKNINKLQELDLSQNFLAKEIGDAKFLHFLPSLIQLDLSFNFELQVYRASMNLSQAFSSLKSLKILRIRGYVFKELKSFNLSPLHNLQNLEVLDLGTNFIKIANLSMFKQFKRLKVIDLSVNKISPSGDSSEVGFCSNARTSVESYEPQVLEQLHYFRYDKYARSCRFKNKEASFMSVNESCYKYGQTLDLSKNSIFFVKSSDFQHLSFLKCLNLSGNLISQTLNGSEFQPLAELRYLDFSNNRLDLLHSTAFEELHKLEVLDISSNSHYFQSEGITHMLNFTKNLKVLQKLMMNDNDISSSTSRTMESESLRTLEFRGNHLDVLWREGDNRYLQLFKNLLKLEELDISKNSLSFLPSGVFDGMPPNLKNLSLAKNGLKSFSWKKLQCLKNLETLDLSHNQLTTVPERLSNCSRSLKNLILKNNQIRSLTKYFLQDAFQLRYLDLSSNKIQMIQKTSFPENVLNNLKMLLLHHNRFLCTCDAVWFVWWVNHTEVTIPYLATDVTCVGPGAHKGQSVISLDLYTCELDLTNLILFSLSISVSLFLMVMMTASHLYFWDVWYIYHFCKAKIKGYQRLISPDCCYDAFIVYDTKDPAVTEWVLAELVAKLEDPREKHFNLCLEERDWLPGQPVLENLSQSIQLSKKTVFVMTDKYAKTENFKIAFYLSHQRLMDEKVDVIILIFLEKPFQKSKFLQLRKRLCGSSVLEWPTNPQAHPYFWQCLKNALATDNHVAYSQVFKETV
Briefly: Activation of hTLR7 in HEK-Blue hTLR7 stably transfected cells. In kind it is cell-based. To be noted: OD 620 nm, 6-16 hours. As for the experimental part:
The activation effect of the compound of the present application on the hTLR7 protein expressed in HEK-Blue™ hTLR7 stably transfected cells and hTLR8 protein expressed in HEK-Blue™ hTLR8 stably transfected cells were determined by the following experimental method:
The HEK-Blue assay medium was configured, HEK-Blue test dry powder was taken and 50 mL deendotoxin water were added to dissolve, then the resulting mixture was placed into the 37° C. incubator, and then filtered aseptically 10 minutes later. […]
The above-prepared compound was diluted 20-fold with a medium, and then 20 μL of the diluted compound were added to each well. HEK-Blue™ hTLR7 cells and HEK-Blue™ hTLR8 cells were taken separately, and the supernatant was removed first, then 2-5 mL pre-warmed PBS was added, placed in an incubator for 1-2 minutes, and the cells were gently pipetted, stained with trypan blue and counted. […]
The microplate reader reads at a wavelength of 620 nm. The corresponding OD value was obtained, and the EC50 value of the drug was calculated by Graphpad Prism. The activation effect of the compound of the present application and the control compound (prepared by the method of embodiment 21 of WO2016023511) on human TLR7 and TLR8 were determined by the above test, and the measured EC50 values were as shown in Table 1.

Assay [2] deals with T2, hERG potassium channels (Homo sapiens, UniProt Q12809).
T2 construct: expressed in transfected cells
The assay can be described thus: Blocking effect on hERG potassium current, automatic patch-clamp, HEK293-hERG stable cell line. The assay is classed as cell-based. As to the method: The blocking effect of the compound of the present application on hERG potassium current was tested using an automatic patch-clamp on a stable cell line transfected with hERG potassium channels.
The HEK293-hERG stable cell line was subcultured at a density of 1:4 in MEM/EBSS medium (10% FBS, 400 μg/mL G418, 1% MEM non-essential amino acid solution (100×), 1% sodium pyruvate solution) and cultured within 48-72 hours for automatic patch-clamp experiments. On the day of the experiment, the cells were digested with 0.25% trypsin, collected by centrifugation and resuspended with extracellular fluid (140 mM NaCl, 4 mM KCl, 1 mM MgCl2, 2 mM CaCl2, 5 mM MD glucose monohydrate, 10 mM Hepes, pH 7.4, 298 mOsmol) to give a cell suspension. […] The currents at each concentration of the compound and the blank control current were analyzed by HEAK Patchmaster, HEAK EPC 10 patch clamp amplifiers (Nanion) and Pathlinersoftware and data analysis software provided by Pathcontrol HTsoftware.
Blocking effect of the compound of the present application on hERG potassium current was determined by the above experimental method, and the IC50 values were as shown in Table 5.
(In general: hERG is a cardiac potassium channel; its block is linked to QT prolongation.)

Some results are limits rather than exact numbers.

As usually defined, the EC50 is the concentration that produces a half-maximal response. A higher EC50 goes with a need for much substance. One may read the IC50 as the midpoint of a concentration-inhibition curve. Read a high IC50 as weaker potency in that assay.

T2 sequence (Q12809 whole entry): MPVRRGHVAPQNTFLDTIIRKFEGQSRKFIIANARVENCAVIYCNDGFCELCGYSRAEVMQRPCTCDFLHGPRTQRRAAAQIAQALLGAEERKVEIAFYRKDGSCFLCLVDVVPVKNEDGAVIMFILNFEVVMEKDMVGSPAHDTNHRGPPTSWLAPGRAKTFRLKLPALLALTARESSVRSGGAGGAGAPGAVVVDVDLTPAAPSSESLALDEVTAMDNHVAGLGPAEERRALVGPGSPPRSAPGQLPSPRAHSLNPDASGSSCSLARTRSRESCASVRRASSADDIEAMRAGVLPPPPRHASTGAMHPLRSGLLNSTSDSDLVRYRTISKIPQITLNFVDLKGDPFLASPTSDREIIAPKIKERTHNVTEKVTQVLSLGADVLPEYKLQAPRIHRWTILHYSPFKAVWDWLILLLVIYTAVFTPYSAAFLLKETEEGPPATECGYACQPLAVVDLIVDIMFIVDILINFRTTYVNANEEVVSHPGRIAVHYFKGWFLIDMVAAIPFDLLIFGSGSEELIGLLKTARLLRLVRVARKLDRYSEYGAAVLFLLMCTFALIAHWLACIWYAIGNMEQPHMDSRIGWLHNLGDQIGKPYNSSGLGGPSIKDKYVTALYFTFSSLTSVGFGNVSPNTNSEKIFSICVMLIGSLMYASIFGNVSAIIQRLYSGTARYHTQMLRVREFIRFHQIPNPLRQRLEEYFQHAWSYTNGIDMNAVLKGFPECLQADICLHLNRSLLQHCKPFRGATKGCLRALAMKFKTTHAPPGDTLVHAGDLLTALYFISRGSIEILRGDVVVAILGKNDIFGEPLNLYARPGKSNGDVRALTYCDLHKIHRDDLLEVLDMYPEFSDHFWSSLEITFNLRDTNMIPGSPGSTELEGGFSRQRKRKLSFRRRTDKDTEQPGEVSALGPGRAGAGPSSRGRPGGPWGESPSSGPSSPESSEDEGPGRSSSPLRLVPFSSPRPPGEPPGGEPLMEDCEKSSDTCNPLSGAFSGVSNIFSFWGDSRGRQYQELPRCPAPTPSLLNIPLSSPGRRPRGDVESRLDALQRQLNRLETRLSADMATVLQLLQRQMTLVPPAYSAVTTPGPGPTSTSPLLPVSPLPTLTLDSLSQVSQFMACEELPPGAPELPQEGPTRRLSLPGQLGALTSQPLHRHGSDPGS

On to `CCCCOc1nc(N)c2[nH]cc(Cc3ccc(CN4CCCC4)cc3)c2n1` [Embodiment 21 of WO2016023511], for which a half-maximal effect in assay [1] (EC50) was put at 243 nM. This compound registered a half-inhibitory concentration (IC50) in assay [2] of 3600 nM.

Take `CCCCOc1nc(N)c2[nH]nc(Cc3ccc(CN4CCCC4)cc3)c2n1` [Embodiment 1, 5-Butoxy-3-(4-(pyrrolidin-1-ylmethyl)benzyl)-1H-pyrazolo[4,3-d]pyrimidin-7-amine]: in assay [1], a half-maximal effect (EC50) was put at 53 nM. In addition, the IC50 in assay [2] is more than 30000 nM.
